# Entries after “also recorded” stand apart in the source; their conditions may differ. Read-outs that look alike come from different tables or passages of the source. Marks after values point to notes of the source that are not given here.
# Key:
# [1] = bile acid micelles; cited from earlier work
# [2] = system: intestinal cells from whole small-intestine; assay: Uptake of 14C-labeled CPT-11 and SN-38 by intestinal cells, regions combined or not distinguished (TCA, pH, bicarbonate effects); details: for uptake rate of the lactone compared with the carboxylate form: cells from both intestinal regions; for saturability of the uptake (predominant component): SN-38 concentrations lower than 2 μM
# Procedure: By adding the drugs to Hank's solution containing intestinal cells from whole small-intestine, uptake studies were performed.
# (§1) Intestinal cells were isolated as previously described (28, 29). Briefly, male hamsters were anesthetized with sodium pentobarbital (Nembutol 70 mg/kg body weight). The entire intestine was removed. The intestinal lumen was washed with 37° C. Hank's solution. Sacs of the ileum (12.5 cm from cecum) and jejunum (remaining small intestine) were rinsed, as well as the intestinal sacs of the anal site of small intestine (12.5 cm from cecum) and oral site (the other small intestine). The sacs were rinsed with oxygenated buffer solution containing sodium citrate (96 mM NaCl, 1.5 mM KCl, 5.6 mM KH2PO4, 27 mM sodium citrate, pH 7.3), and incubated for 10 min in the same buffer at 37° C. The sacs were then emptied, filled with oxygenated buffer solution containing EDTA (140 mM NaCl, 16 mM Na2HPO4, 2 mM EDTA, 0.5 mM dithiothreitol, pH 7.3), incubated for 10 min at 37° C. Then each sac was placed onto a petri dish and gently vortexed for 1 min. The buffer containing intestinal cells was recovered in 50 mL of Hanks' solution, washed twice and adjusted at 10^6 cells/ml in Hanks' medium (cellular stock solution containing 0.5% bovine serum albumin, pH 7.4).
# (§2) The cellular suspension of 0.95 ml was incubated for 15 min in a 37° C. water bath with stirring. Uptake was started by the addition of 0.05 ml PBS (at pH 3 or 9) containing labeled SN-38 or CPT-11 at 37° C. At various time intervals, 100 μL, sample aliquots were diluted into 3 mL of Hank's medium at 4° C. to stop the uptake. The stop solution containing the cells was filtered through a glass microfiber filter (Glass Fiber Filter Circles G4, Fisherbrand, Pa.) under vacuum (20 psi). The cells were washed once with 5 mL of 0.5% bovine serum albumin-containing Hanks' medium (4° C.) and once with 20 mL of Hanks' solution (4° C.). The filters were placed in a vial containing 4 mL of scintillation liquid (Ultra Gold, Packard, Conn.) and the radioactivity was counted in a β scintillation counter (LS3801, Beckman, Md.).
# (§3) The effect of the metabolic inhibitor, 2,4 dinitrophenol (1 mM), was studied by adding this agent to the cells 3 min prior to either ^14C-CPT-11 or ^14C-SN-38 (2 μM). The effect of 20 mM of taurocholic acid (TCA) on the uptake of both CPT-11 and SN-38 was investigated following overnight incubation of ^14C-CPT-11 (20 μM) and ^14C-SN-38 (2 μM) in Hank's solution, at pH 7.4 and in the presence and absence of TCA. The effect of 200 μM of DNP-SG or SN-38-Glu was also studied by adding these agents to the cell preparation 7 min prior to either ^14C-CPT-11 (20 μM) and ^14C-SN-38 (2 μM).
# The effect of physiologic pH on the initial intestinal uptake rate of CPT-11 and SN-38 was investigated following overnight incubation of ^14C-CPT-11 (20 μM) and ^14C-SN-38 (2 μM) in phosphate buffered saline at pH 6.2, 6.8, 7.4 and 8, respectively.
# (§4) The initial rate of uptake of CPT-11 or SN-38 was derived from the linear regression analysis of the respective regression line obtained from the plot of the uptake as a function of time. The initial rates of uptake were plotted against the corresponding concentration. The data were fitted by least-squares nonlinear regression analysis (SigmaStat, Jandel Scientific, CA), using the equation V=(Vmax·S)/(Km+S)+Kd·S where V represents the initial rate of uptake. Vmax is the maximum rate of uptake, Km is the apparent Michaelis constant, Kd is the rate of diffusion and S is the concentration of CPT-11 or SN-38.
# ileal cells = type: in vitro ADME, hamster
# Procedure: (§5) The other drugs were dissolved in distilled water. […] DNP-SG was made from glutathione and CDNB (1-chloro-2,4-dinitro benzene) chemically. All other reagents were of analytical grade. Adult male Golden Syrian hamsters (6-8 weeks age), whose model presents a bile acid profile similar to that observed in human (28), were used.
# as §1, §2, §3, §4
# [3] = system: isolated intestinal cells from jejunum; type: in vitro ADME, hamster
# Procedure: as §5, §1, §2, §3, §4
# [4] = CPT-11 metabolite formed by hepatic cytochrome P-450 3A; cited from earlier work
# [5] = type: physicochemical; details: 1,000-molecular weight cut-off membrane
# Source text: Monomers were separated from micellar aggregates by ultrafiltration through a 1000-molecular weight cut-off membrane (YM1) as described in Materials and Methods. Values are the monomeric forms of the indicated metabolites, expressed as a percentage (%) of the concentration of the initial solution before ultrafiltration. Comparison between TCA and control was estimated by Mann-Whitney test. […] Abbreviations used: CPT lactone (CPT lact.); CPT carboxylate (CPT carb.); SN-38 lactone (SN lact.); and SN-38 carboxylate (SN carb.).
# [6] = bile of two men treated by cisplatin who received CPT-11 intravenously; cited from earlier work
# [7] = cited from earlier work
# [8] = cited from earlier work; remark: listed apart in the source
# [9] = % of control, inhibitor 1 mM added 3 min before [14C]CPT-11 (20 μM), n=5
# [10] = % of control, inhibitor 1 mM added 3 min before [14C]SN-38 (2 μM), n=5
# [11] = 20 μM 14C-CPT-11, 2 μM 14C-SN-38
# [12] = % of control, inhibitor 200 μM added 7 min before [14C]CPT-11 (20 μM), n=5
# [13] = % of control, inhibitor 200 μM added 7 min before [14C]SN-38 (2 μM), n=5
compound,measurement,setting,value
CC(C)CCC[C@@H](C)[C@H]1CC[C@H]2[C@@H]3CC=C4C[C@@H](O)CC[C@]4(C)[C@H]3CC[C@]12C [cholesterol],percentage of the monomer concentration (comparison values),[1],3%
"N[C@@H](CCC(=O)N[C@@H](CSc1ccc([N+](=O)[O-])cc1[N+](=O)[O-])C(=O)NCC(=O)O)C(=O)O [DNP-SG, 2,4-dinitrophenyl-S-glutathione]",effect of the added agent on the uptake rate of SN-38 lactone,[2],not significantly affected
same,effect of the added agent on the uptake of CPT-11 carboxylate,[2]; intestinal region not given,remained unchanged
same,effect of the added agent on the uptake rate of CPT-11 lactone,[2]; intestinal region not given,not significantly affected
same,"initial uptake rate of CPT-11 carboxylate, ileum",ileal cells,105.8%
same,"initial uptake rate of SN-38 carboxylate, ileum",ileal cells,28.5* %
same,"initial uptake rate of CPT-11 carboxylate, jejunum",[3],103.2%
same,"initial uptake rate of CPT-11 lactone, jejunum",[3],105.4%
same,"initial uptake rate of SN-38 carboxylate, jejunum",[3],32.0* %
same,"initial uptake rate of SN-38 lactone, jejunum",[3],78.8%
"O=[N+]([O-])c1ccc(O)c([N+](=O)[O-])c1 [Dinitrophenol, 2,4-dinitrophenol]",effect of the added agent on the uptake rate of CPT-11 lactone,[2]; intestinal region not given,not significantly affected
same,effect of the added agent on the uptake rate of SN-38 lactone,[2]; intestinal region not given,not significantly affected
same,"initial uptake rate of CPT-11 carboxylate, ileum",ileal cells; [9],29.2%
same,"initial uptake rate of CPT-11 lactone, ileum",ileal cells; [9],105.5%
same,"initial uptake rate of SN-38 carboxylate, ileum",ileal cells; [10],30.8%
same,"initial uptake rate of SN-38 lactone, ileum",ileal cells; [10],134.9%
same,"initial uptake rate of CPT-11 carboxylate, jejunum",[3]; [9],22.6%
same,"initial uptake rate of CPT-11 lactone, jejunum",[3]; [9],94.1%
same,"initial uptake rate of SN-38 carboxylate, jejunum",[3]; [10],25.5%
same,"initial uptake rate of SN-38 lactone, jejunum",[3]; [10],96.1%
CCc1c2c(nc3ccc(OC(=O)N4CCC(NCCCCC(=O)O)CC4)cc13)-c1cc3c(c(=O)n1C2)COC(=O)C3(O)CC (stereo not drawn) [7-ethyl-10-[4-N-(5-aminopentanoic acid)-1-piperidino]carbonyloxycamptothecin],antitumor activity weaker than SN-38,[4],500 fold
CCc1c2c(nc3ccc(O)cc13)-c1cc3c(c(=O)n1C2)COC(=O)[C@]3(O)CC [SN-38 lactone],transport mechanism in intestinal cells,[2],passively transported
same,uptake rate of the lactone compared with the carboxylate form,[2]; [11],more rapidly taken up; also recorded: several times greater
same,saturability of the uptake (predominant component),[2]; jejunal and ileal cells,mostly non-saturable
same,effect of TCA on % monomer concentration / association to TCA micelles,[5],significantly decreased
"CCc1c2c(nc3ccc(OC(=O)N4CCC(N5CCCCC5)CC4)cc13)-c1cc3c(c(=O)n1C2)COC(=O)[C@]3(O)CC.Cl [CPT-11, (4S)-4,11-diethyl-4-hydroxy-9-[(4-piperidinopiperidino)carbonyloxy]1H-pyrano [3′,4′:6,7] indolizino[1,2-b]quinoline-3,14(4 h, 12H)dione hydrochloride]",initial uptake rate at acidic pH (pH 6.2 and 6.8) versus neutral or alkaline pH (pH 7.4 and 8),[2],several times greater
same,initial uptake rate in the presence of 20 mM TCA,"[2]; cells from jejunum and ileum combined, 14C-CPT-11 20 μM, 14C-SN-38 2 μM, pH 7.4, mean±SD, n=5",48.5±10.8 % of control without TCA
same,decrease of the uptake rate at a pH greater than 6.8,"[2]; pH 6.2 to 8, 20 μM 14C-CPT-11, 2 μM 14C-SN-38",around 65%
same,uptake when HEPES of the Hank's buffer was replaced by sodium bicarbonate,[2]; pH adjusted to greater than 7,decreased
same,share of the biliary content,[6],75.6-91.9%
same,share in lactone form at pH 7.4,[7],13%
same,incidence of grade 4 diarrhea,[8]; before adoption of loperimide therapy,17%
same,incidence of grade 4 diarrhea,[8]; following adoption of an aggressive loperimide therapy,5%
"CCc1c2c(nc3ccc(O[C@@H]4O[C@H](C(=O)O)[C@@H](O)[C@H](O)[C@H]4O)cc13)-c1cc3c(c(=O)n1C2)COC(=O)[C@]3(O)CC [SN38-Glu, SN-38 β-glucuronide]",effect of the added agent on the uptake of CPT-11 carboxylate,[2]; intestinal region not given,remained unchanged
same,effect of the added agent on the uptake rate of CPT-11 lactone,[2]; intestinal region not given,not significantly affected
same,effect of the added agent on the uptake rate of SN-38 lactone,[2]; intestinal region not given,not significantly affected
same,share of the biliary content,[6],7.3-18.9%
same,"initial uptake rate of CPT-11 carboxylate, ileum",ileal cells; [12],93.9%
same,"initial uptake rate of SN-38 carboxylate, ileum",ileal cells; [13],28.9* %
same,"initial uptake rate of CPT-11 carboxylate, jejunum",[3]; [12],108.9%
same,"initial uptake rate of CPT-11 lactone, jejunum",[3]; [12],88.9%
same,"initial uptake rate of SN-38 carboxylate, jejunum",[3]; [13],40.1* %
same,"initial uptake rate of SN-38 lactone, jejunum",[3]; [13],54.3%
CCc1c2c(nc3ccc(OC(=O)N4CCC(N5CCCCC5)CC4)cc13)-c1cc([C@@](O)(CC)C(=O)O)c(CO)c(=O)n1C2 [CPT-11 carboxylate],transport mechanism in intestinal cells,[2],actively absorbed
same,Km,"ileal cells; ileum, fit V=(Vmax·S)/(Km+S)+Kd·S, mean, read-out: Km (apparent Michaelis constant of uptake)",50.5 µM
same,Vmax (maximum rate of uptake),"ileal cells; ileum, nonlinear regression fit, mean",157.3 p mol · 10 ^6 cells^−1 · min^−1
same,Km,"[3]; jejunum, fit V=(Vmax·S)/(Km+S)+Kd·S, mean, read-out: Km (apparent Michaelis constant of uptake)",51.3 µM
same,Vmax (maximum rate of uptake),"[3]; jejunum, nonlinear regression fit, mean",146.9 p mol · 10 ^6 cells^−1 · min^−1
CCCCCCCC/C=C\CCCCCCCC(=O)O [oleic acid],percentage of the monomer concentration (comparison values),[1],2.3%
CCc1c2c(nc3ccc(OC(=O)N4CCC(N5CCCCC5)CC4)cc13)-c1cc3c(c(=O)n1C2)COC(=O)[C@]3(O)CC [CPT-11 lactone],transport mechanism in intestinal cells,[2],passively transported
same,uptake rate of the lactone compared with the carboxylate form,[2]; [11],more rapidly taken up; also recorded: several times greater
same,Kd lower than that of SN-38 lactone,[2]; jejunal and ileal cells,1.8-2.5 fold
same,saturability of the uptake (predominant component),[2]; jejunal and ileal cells,non-saturable
same,effect of TCA on % monomer concentration / association to TCA micelles,[5],significantly decreased

# From patent US6635628B2, “Methods of administering camptothecin compounds for the treatment of cancer with reduced side effects” (The George Washington University, priority 1998, dated 2003)
